# In patent publication US20050130890A1, “Amyloid beta is a ligand for FPR class receptors” (priority 2001, published 2005):
# Legend:
# [1] = system: human monocytes; test: Ca2+ mobilization in fura-2 loaded human monocytes; format: cell-based; details: PT-treated cells, 20 μM Aβ42
# Description: Reagents and cells. Aβ peptide (Aβ42) and the peptide with reversed sequence (Aβ42-1) were purchased from California Peptide Research (Napa, Calif.). All peptides were examined for endotoxin contamination and were negative at highest concentrations used in the study. Human peripheral blood monocytes were isolated from buffy coats (National Institutes of Health Clinical Center, Bethesda, Md.) enriched for mononuclear cells by using iso-osmotic Percoll gradient. The purity of the cell preparations was examined by morphology and was >90%. Rat basophilic leukemia cell line (RBL-2H3) transfected with epitope-tagged N-formylpeptide receptor (FPR) (designated ETFR) was a kind gift of Dr. R. Snyderman (Duke University, Durham, N.C.). cDNA cloning and establishment of FPRL1-transfected human embryonic kidney (HEK) 293 cells (FPRL1/293) were described previously (Gao J. L. & Murphy P. M. 1993 J Biol Chem 268:[…]). All the transfected cells were maintained in culture media as described (Su S. B. et al. 1999 J Exp Med 189:395-402).
# Chemotaxis assays and measurement of calcium mobilization. Chemotaxis assays were performed using 48-well chemotaxis chambers (Deng X. et al. 1999 Blood 94:1165-1673). The results were expressed as the mean number (±SD) of migrated cells in three high-powered fields in three replicate samples. Chemotaxis index, which represented the fold increase in the number of cells migrated in response to chemoattractants over the cell response to control medium, also was used. Ca^+ mobilization was measured by stimulating fura-2 AM-loaded human monocytes or receptor-transfected cells with various agents (Deng X. et al. 1999 Blood 94:1165-1673; Su S. B. et al. 1999 J Exp Med 189:395-402) and recording the ratio of fluorescence at 340 and 380 nm in a luminescence spectrometer with FL WinLab program (Perkin-Elmer, Beaconsfield, UK).
# [2] = system: N9 murine microglial cell line; test: Chemotaxis of N9 microglial cells; format: cell-based, mouse; details: LPS-activated N9 cells; PTX 100 ng/ml, 37° C., 30 min
# [3] = system: mouse neutrophils; test: Calcium flux in mouse neutrophils; format: cell-based; details: PTX 250 ng/ml for 4 h
# Description: Preparation of Mouse Neutrophils. Neutrophils were obtained from the peritoneal cavity of wild type and gene knockout litter mates of F1 and F6 backcrosses of 129/sV FPR−/− mice with C57B1/6 mice 3-4 h after intraperitoneal injection of a 3% thioglycollate solution, as previously described (Gao J-L. et al. 1999 J Exp Med 189:657-662). The cell population was consistently composed of >90% neutrophils, as determined by light microscopy of DiffQuick-stained cytospins. Thus, hereafter we will refer to this cell preparation as neutrophils.
# Calcium Flux Analysis. To monitor intracellular Ca^2+ concentration, adherent cells were harvested by incubation in phosphate-buffered saline at 37° C. for 15 min and then incubated in phosphate-buffered saline containing 2.5 μM Fura-2/AM at 37° C. for 45 min. […] Data were recorded every 200 ms as the relative ratio of fluorescence emitted at 510 nm following sequential excitation at 340 and 380 nm. The following ligands were evaluated: Aβ (nonfibrillated, human residues 1-42; California Peptide Research; Napa, Calif.), fMet-Leu-Phe (fMLF; Sigma), ATP (Life Technologies), and the chemokines RANTES (regulated upon activation normal T-cell expressed and secreted), SDF-1 (stromal cell-derived factor-1), 1-309, fractalkine, MIP-1α (macrophage inflammatory protein-1α), and KC (Peprotech, Rocky Hill, N.J.). […]
substance,measurement,setting,value
pertussis toxin,effect of preincubation on monocyte calcium flux in response to Aβ42,[1],completely abolished
same,effect of pretreatment on chemotaxis to Aβ,[2],completely blocked
same,effect of pretreatment on Aβ induction of calcium flux,[3],completely blocked
